Consider eight molecules from patent publication US11377441B2, “Covalent inhibitors of KRAS” (Araxes Pharma LLC, priority 2017, dated 2022).

The target in this experiment is T1, KRAS G12C 1-169, his-tagged protein, GDP-loaded (Homo sapiens, UniProt P01116, G12C).
T1 construct: KRAS G12C 1-169, his-tagged protein, GDP-loaded
The experiment can be described thus: Biochemical assay: covalent modification of KRAS G12C measured by mass spectrometry (RapidFire/TOF or Q-Exactive). It is filed as binding. The following applies: covalent binding to (modification of) KRAS G12C after a ten minute incubation period. A digest of the protocol:
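Intact-mass readout (TOF or Q-Exactive, charge-envelope deconvolution) gives percent covalent adduct from modified and unmodified species. Compound at 10, 30 or 100 μM was incubated at room temperature for 10 min to 24 h with 2 μM or 0.5 μM GDP-bound KRAS G12C 1-169 in Hepes/NaCl/MgCl2 buffer, then acid-quenched.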

Turning to `C=CC(=O)N1C[C@H](C)N(c2nc(OCCN3CC[C@@H](OC)C3)nc3c(F)c(-c4c(C)ccc5[nH]nc(N)c45)c(Cl)cc23)C[C@H]1C` [Compound 100, 1-((2R,5S)-4-(7-(3-amino-5-methyl-1H-indazol-4-yl)-6-chloro-8-fluoro-2-(2-((R)-3-methoxypyrrolidin-1-yl)ethoxy)quinazolin-4-yl)-2,5-dimethylpiperazin-1-yl)prop-2-en-1-one], the Binding % result is “+++ (+++ indicates binding activity greater than 80%)”. Under `C=CC(=O)N1C[C@H](C)N(c2nc(N3CC([N+](C)(C)C)C3)nc3c(F)c(-c4c(C)ccc5cnn(C)c45)c(Cl)cc23)C[C@H]1C` [Compound 106, 1-((R)-4-((2S,5R)-4-acryloyl-2,5-dimethylpiperazin-1-yl)-6-chloro-7-(1,6-dimethyl-1H-indazol-7-yl)-8-fluoroquinazolin-2-yl)-N,N,N-trimethylazetidin-3-aminium] stands “+++ (+++ indicates binding activity greater than 80%)”; under `C=CC(=O)N1C[C@H](C)N(c2nc(N3CC(N(C)C)C3)nc3c(F)c(-c4c(C)ccc5[nH]nc(C)c45)c(Cl)cc23)C[C@H]1C` [Compound 107, 1-((2R,5S)-4-(6-chloro-7-(3,5-dimethyl-1H-indazol-4-yl)-2-(3-(dimethylamino)azetidin-1-yl)-8-fluoroquinazolin-4-yl)-2,5-dimethylpiperazin-1-yl)prop-2-en-1-one], “+ (+ indicates binding activity greater than 0% and up to 50%)”; under `C=CC(=O)N1C[C@H](C)N(c2nc(OCCN3CC[C@@H](F)C3)nc3c(F)c(-c4c(C)ccc5[nH]nc(N)c45)c(Cl)cc23)C[C@H]1C` [Compound 108, 1-((2R,5S)-4-(7-(3-amino-5-methyl-1H-indazol-4-yl)-6-chloro-8-fluoro-2-(2-((R)-3-fluoropyrrolidin-1-yl)ethoxy)quinazolin-4-yl)-2,5-dimethylpiperazin-1-yl)prop-2-en-1-one], “+++ (+++ indicates binding activity greater than 80%)”. Regarding `C=CC(=O)N1C[C@H](C)N(c2nc(OCCN3CC[C@H](F)C3)nc3c(F)c(-c4c(C)ccc5[nH]nc(N)c45)c(Cl)cc23)C[C@H]1C` [Compound 109, 1-((2R,5S)-4-(7-(3-amino-5-methyl-1H-indazol-4-yl)-6-chloro-8-fluoro-2-(2-((S)-3-fluoropyrrolidin-1-yl)ethoxy)quinazolin-4-yl)-2,5-dimethylpiperazin-1-yl)prop-2-en-1-one], the Binding % entry is “+++ (+++ indicates binding activity greater than 80%)”. In the case of `C=CC(=O)N1C[C@H](C)N(c2nc(OCCN3CCCC(F)(F)C3)nc3c(F)c(-c4c(C)ccc5[nH]nc(N)c45)c(Cl)cc23)C[C@H]1C` [Compound 114, 1-((2R,5S)-4-(7-(3-amino-5-methyl-1H-indazol-4-yl)-6-chloro-2-(2-(3,3-difluoropiperidin-1-yl)ethoxy)-8-fluoroquinazolin-4-yl)-2,5-dimethylpiperazin-1-yl)prop-2-en-1-one] it was “+++ (+++ indicates binding activity greater than 80%)”; in that of `C=CC(=O)N1C[C@H](C)N(c2nc(N3CC(N(C)C)C3)nc3c(F)c(-c4c(C)ccc5[nH]nc(C(F)(F)F)c45)c(Cl)cc23)C[C@H]1C` [Compound 115, 1-((2R,5S)-4-(6-chloro-2-(3-(dimethylamino)azetidin-1-yl)-8-fluoro-7-(5-methyl-3-(trifluoromethyl)-1H-indazol-4-yl)quinazolin-4-yl)-2,5-dimethylpiperazin-1-yl)prop-2-en-1-one], “+ (+ indicates binding activity greater than 0% and up to 50%)”. In the case of `C=CC(=O)N1C[C@H](C)N(c2nc(OCCN3CCC(F)(F)CC3)nc3c(F)c(-c4c(C)ccc5[nH]nc(N)c45)c(Cl)cc23)C[C@H]1C` [Compound 118, 1-((2R,5S)-4-(7-(3-amino-5-methyl-1H-indazol-4-yl)-6-chloro-2-(2-(4,4-difluoropiperidin-1-yl)ethoxy)-8-fluoroquinazolin-4-yl)-2,5-dimethylpiperazin-1-yl)prop-2-en-1-one] it was “+++ (+++ indicates binding activity greater than 80%)”.
